Legend:
Assay type in all cases: in vivo
[1] = test system: Alopecurus myosuroides (ALOMY); assay: Post-emergence glasshouse herbicide test; conditions: POST Application, 1000 g/h, after 13 days
In short: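 In this glasshouse post-emergence test, ALOMY plants were cultivated in standard soil for 8 days under controlled conditions (24/16° C. day/night, 14 hours light, 65% humidity). They were then treated with a spray derived from an acetone/water (50:50) formulation with 0.5% Tween 20, grown on with watering twice daily, and rated for percentage damage after 13 days.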

[2] = test system: Amaranthus retoflexus (AMARE); assay: Post-emergence glasshouse herbicide test; conditions: POST Application, 1000 g/h, after 13 days
[3] = test system: Echinochloa crus-galli (ECHCG); assay: Post-emergence glasshouse herbicide test; conditions: POST Application, 1000 g/h, after 13 days
[4] = test system: Ipomoea hederacea (IPOHE); assay: Post-emergence glasshouse herbicide test; conditions: POST Application, 1000 g/h, after 13 days
Solanum nigrum (SOLNI) [5] = assay: Post-emergence glasshouse herbicide test; conditions: POST Application, 1000 g/h, after 13 days
In short: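 This glasshouse post-emergence herbicide test used Solanum nigrum plants sown in standard soil and cultivated for 8 days under controlled conditions (24/16° C. day/night, 14 hours light, 65% humidity). An aqueous spray from an acetone/water (50:50) solution with 0.5% Tween 20 was applied. Plants were watered twice daily, and damage to each plant was assessed as a percentage 13 days later.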

Setaria faberi (SETFA) [6] = assay: Post-emergence glasshouse herbicide test; conditions: POST Application, 1000 g/h, after 13 days
In short: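 This post-emergence glasshouse herbicide test used SETFA plants raised in pots of standard soil for 8 days under controlled conditions (24/16° C., 14 hours light, 65% humidity). An aqueous spray made from acetone/water (50:50) with 0.5% Tween 20 was applied. Plants were watered twice daily, and percentage plant damage was assessed 13 days later.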

[7] = test system: Alopecurus myosuroides (ALOMY); assay: Pre-emergence glasshouse herbicide test; conditions: PRE Application, 1000 g/h, after 13 days
In short: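 This pre-emergence glasshouse test used pots of standard soil sown with ALOMY seed and cultivated for one day under controlled conditions of 24/16° C., 14 hours light and 65% humidity. An aqueous spray from an acetone/water (50:50) formulation with 0.5% Tween 20 was applied. After 13 days of further growth with twice-daily watering, plant damage was rated as a percentage.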

[8] = test system: Amaranthus retoflexus (AMARE); assay: Pre-emergence glasshouse herbicide test; conditions: PRE Application, 1000 g/h, after 13 days
[9] = test system: Echinochloa crus-galli (ECHCG); assay: Pre-emergence glasshouse herbicide test; conditions: PRE Application, 1000 g/h, after 13 days
[10] = test system: Ipomoea hederacea (IPOHE); assay: Pre-emergence glasshouse herbicide test; conditions: PRE Application, 1000 g/h, after 13 days
Setaria faberi (SETFA) [11] = assay: Pre-emergence glasshouse herbicide test; conditions: PRE Application, 1000 g/h, after 13 days
Solanum nigrum (SOLNI) [12] = assay: Pre-emergence glasshouse herbicide test; conditions: PRE Application, 1000 g/h, after 13 days

| Compound | percentage damage caused to the plant, ALOMY [1] | percentage damage caused to the plant, AMARE [2] | percentage damage caused to the plant, ECHCG [3] | percentage damage caused to the plant, IPOHE [4] | percentage damage caused to the plant, SOLNI (Solanum nigrum (SOLNI) [5]) | percentage damage caused to the plant, SETFA (Setaria faberi (SETFA) [6]) | percentage damage caused to the plant, ALOMY [7] | percentage damage caused to the plant, AMARE [8] | percentage damage caused to the plant, ECHCG [9] | percentage damage caused to the plant, IPOHE [10] | percentage damage caused to the plant, SETFA (Setaria faberi (SETFA) [11]) | percentage damage caused to the plant, SOLNI (Solanum nigrum (SOLNI) [12]) |
| --- | --- | --- | --- | --- | --- | --- | --- | --- | --- | --- | --- | --- |
| Cn1nnnc1NC(=O)c1nc2ccccc2n(-c2cccc(Br)c2)c1=O [Compound 5.024] | 5 (5=80-100%) | 5 (5=80-100%) | 5 (5=80-100%) | 4 (4=60-79%) | 5 (5=80-100%) | 5 (5=80-100%) | 5 (5=80-100%) | 5 (5=80-100%) | 5 (5=80-100%) | 5 (5=80-100%) | 5 (5=80-100%) | 5 (5=80-100%) |
| Cn1nnnc1NC(=O)c1nc2ccccc2n(-c2cccc([N+](=O)[O-])c2)c1=O [Compound 5.025] | 5 (5=80-100%) | 5 (5=80-100%) | 5 (5=80-100%) | 4 (4=60-79%) | 5 (5=80-100%) | 5 (5=80-100%) | 2 (2=20-39%) | 5 (5=80-100%) | 3 (3=40-59%) | 4 (4=60-79%) | 2 (2=20-39%) | 5 (5=80-100%) |
| Cn1nnnc1NC(=O)c1nc2ccccc2n(-c2cccc(C(F)(F)F)c2)c1=O [Compound 5.026] | 5 (5=80-100%) | 5 (5=80-100%) | 5 (5=80-100%) | 5 (5=80-100%) | 5 (5=80-100%) | 5 (5=80-100%) | 5 (5=80-100%) | 5 (5=80-100%) | 5 (5=80-100%) | 5 (5=80-100%) | 5 (5=80-100%) | 5 (5=80-100%) |
| C=Cc1cccc(-n2c(=O)c(C(=O)Nc3nnnn3C)nc3ccccc32)c1 [Compound 5.027] | 5 (5=80-100%) | 5 (5=80-100%) | 5 (5=80-100%) | 5 (5=80-100%) | 5 (5=80-100%) | 5 (5=80-100%) | 5 (5=80-100%) | 5 (5=80-100%) | 5 (5=80-100%) | 5 (5=80-100%) | 5 (5=80-100%) | 5 (5=80-100%) |
| Cn1nnnc1NC(=O)c1nc2ccccc2n(-c2ccc(F)cc2)c1=O [Compound 5.029] | 4 (4=60-79%) | 5 (5=80-100%) | 5 (5=80-100%) | 5 (5=80-100%) | 5 (5=80-100%) | 5 (5=80-100%) | 5 (5=80-100%) | 5 (5=80-100%) | 5 (5=80-100%) | 5 (5=80-100%) | 5 (5=80-100%) | 5 (5=80-100%) |

Source: patent publication US9179678B2, “Substituted [1,2,4]triazoles and substituted tetrazoles as herbicides” (SYNGENTA LIMITED, priority 2012, dated 2015)
